According to PubChem BioAssay (NCI):
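1) Cells in 96-well plates. 2) Compound, 48 h, 5 concentrations. 3) Linear interpolation between surrounding doses. 4) Unreached endpoint = highest concentration. The concentration for full growth arrest is given as TGI.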

Experiments:
Assay in all cases: DTP human tumour cell line panel, 48 h
[1] = test system: A498 renal
[2] = test system: KM20L2 colon
[3] = test system: A549 NSCLC
[4] = test system: NCI-H460 lung
[5] = test system: M19-MEL melanoma
[6] = test system: DMS 114 small cell lung
[7] = test system: SNB-75 CNS
[8] = test system: HOP-92 NSCLC
[9] = test system: COLO 205 colon
[10] = test system: M14 melanoma
[11] = test system: HCT-15 colon
[12] = test system: CCRF-CEM leukemia
[13] = test system: SF-295 CNS
[14] = test system: HOP-62 NSCLC
[15] = test system: IGROV1 ovarian
[16] = test system: CAKI-1 renal
[17] = test system: RXF 393 renal
[18] = test system: SK-OV-3 ovarian
[19] = test system: RPMI-8226 leukemia
[20] = test system: DLD-1 colon
[21] = test system: MOLT-4 leukemia
[22] = test system: HT29 colon
[23] = test system: HCC-2998 colon
[24] = test system: TK-10 renal
[25] = test system: OVCAR-8 ovarian
[26] = test system: DMS 273 small cell lung
[27] = test system: XF 498 CNS
[28] = test system: 786-0 renal
[29] = test system: EKVX NSCLC
[30] = test system: HCT-116 colon
[31] = test system: HL-60(TB) leukemia
[32] = test system: HOP-18 NSCLC
[33] = test system: NCI-H226 lung
[34] = test system: MALME-3M melanoma
[35] = test system: K-562 leukemia
[36] = test system: OVCAR-4 ovarian
[37] = test system: SNB-19 CNS
[38] = test system: KM12 colon
[39] = test system: NCI-H23 lung
[40] = test system: UACC-257 melanoma
[41] = test system: SF-268 CNS
[42] = test system: LXFL 529 NSCLC
[43] = test system: NCI-H522 lung
[44] = test system: SK-MEL-2 melanoma
[45] = test system: OVCAR-3 ovarian
[46] = test system: UO-31 renal
[47] = test system: SK-MEL-28 melanoma
[48] = test system: SN12C renal
[49] = test system: SF-539 CNS
[50] = test system: SK-MEL-5 melanoma
[51] = test system: SW-620 colon
[52] = test system: ACHN renal
[53] = test system: U251 CNS
[54] = test system: UACC-62 melanoma
[55] = test system: OVCAR-5 ovarian
[56] = test system: SNB-78 CNS
[57] = test system: LOX IMVI melanoma
[58] = test system: SR leukemia

Structure (SMILES): CC(=O)Nc1ccc(C2C(C(=O)Nc3ccccc3)=C(C)NC(C)=C2C(=O)Nc2ccccc2)cc1
- TGI [1]: > 100 µM
- TGI [2]: > 100 µM
- TGI [3]: > 100 µM
- TGI [4]: > 100 µM
- TGI [5]: > 100 µM
- TGI [6]: > 82.5 µM
- TGI [7]: > 100 µM
- TGI [8]: > 100 µM
- TGI [9]: > 100 µM
- TGI [10]: > 100 µM
- TGI [11]: > 100 µM
- TGI [12]: > 100 µM
- TGI [13]: > 100 µM
- TGI [14]: > 100 µM
- TGI [15]: > 100 µM
- TGI [16]: > 100 µM
- TGI [17]: > 100 µM
- TGI [18]: > 100 µM
- TGI [19]: > 100 µM
- TGI [20]: > 100 µM
- TGI [21]: > 100 µM
- TGI [22]: > 100 µM
- TGI [23]: > 100 µM
- TGI [24]: > 100 µM
- TGI [25]: > 100 µM
- TGI [26]: > 100 µM
- TGI [27]: > 100 µM
- TGI [28]: > 100 µM
- TGI [29]: > 100 µM
- TGI [30]: > 100 µM
- TGI [31]: > 100 µM
- TGI [32]: > 100 µM
- TGI [33]: > 100 µM
- TGI [34]: > 100 µM
- TGI [35]: > 100 µM
- TGI [36]: > 100 µM
- TGI [37]: > 100 µM
- TGI [38]: > 100 µM
- TGI [39]: > 100 µM
- TGI [40]: > 100 µM
- TGI [41]: > 100 µM
- TGI [42]: > 100 µM
- TGI [43]: > 100 µM
- TGI [44]: > 100 µM
- TGI [45]: > 100 µM
- TGI [46]: > 100 µM
- TGI [47]: > 100 µM
- TGI [48]: > 100 µM
- TGI [49]: > 100 µM
- TGI [50]: > 100 µM
- TGI [51]: > 100 µM
- TGI [52]: > 100 µM
- TGI [53]: > 100 µM
- TGI [54]: > 100 µM
- TGI [55]: > 100 µM
- TGI [56]: > 100 µM
- TGI [57]: > 100 µM

Structure (SMILES): COC[C@@H]1[C@H]2OC(C)(C)O[C@H]2C(=O)N1C(=O)c1ccc(OC)cc1
- TGI [1]: > 100 µM
- TGI [2]: > 100 µM
- TGI [3]: > 100 µM
- TGI [4]: > 100 µM
- TGI [5]: > 100 µM
- TGI [6]: > 100 µM
- TGI [7]: > 100 µM
- TGI [8]: > 100 µM
- TGI [9]: > 100 µM
- TGI [10]: > 100 µM
- TGI [11]: > 100 µM
- TGI [12]: > 100 µM
- TGI [13]: > 100 µM
- TGI [14]: > 100 µM
- TGI [15]: > 100 µM
- TGI [16]: > 100 µM
- TGI [17]: > 100 µM
- TGI [18]: > 100 µM
- TGI [19]: > 100 µM
- TGI [20]: > 100 µM
- TGI [21]: > 100 µM
- TGI [22]: > 100 µM
- TGI [23]: > 100 µM
- TGI [24]: > 100 µM
- TGI [25]: > 100 µM
- TGI [26]: > 100 µM
- TGI [27]: > 100 µM
- TGI [28]: > 100 µM
- TGI [29]: > 100 µM
- TGI [30]: > 100 µM
- TGI [31]: > 100 µM
- TGI [32]: > 100 µM
- TGI [33]: > 100 µM
- TGI [34]: > 100 µM
- TGI [35]: > 100 µM
- TGI [36]: > 100 µM
- TGI [37]: > 100 µM
- TGI [38]: > 100 µM
- TGI [39]: > 100 µM
- TGI [40]: > 100 µM
- TGI [41]: > 100 µM
- TGI [58]: > 100 µM
- TGI [42]: > 100 µM
- TGI [43]: > 100 µM
- TGI [44]: > 100 µM
- TGI [45]: > 100 µM
- TGI [46]: > 100 µM
- TGI [47]: > 100 µM
- TGI [48]: > 100 µM
- TGI [49]: > 100 µM
- TGI [50]: > 100 µM
- TGI [51]: > 100 µM
- TGI [52]: > 100 µM
- TGI [53]: > 100 µM
- TGI [54]: > 100 µM
- TGI [55]: > 100 µM
- TGI [56]: > 100 µM
- TGI [57]: > 100 µM
